From patent publication US6489481B1, “Method for treating neurological disorders” (AstraZeneca AB, priority 1998, dated 2002)
Where a name gives a salt, the structure may show the parent alone.

What was measured:
emopamil binding protein = target: T1, emopamil binding protein (Cavia porcellus, UniProt Q60490); experiment: Displacement of 3H-emopamil binding to guinea pig liver membranes; conditions: 0.96 nM (-)-3H-emopamil
T1 construct: Guinea pig liver membranes: 40 mg/mL original wet weight; from tissue; host or cells: guinea pig liver membranes (male guinea pigs)
T1 sequence (Q60490 1-229): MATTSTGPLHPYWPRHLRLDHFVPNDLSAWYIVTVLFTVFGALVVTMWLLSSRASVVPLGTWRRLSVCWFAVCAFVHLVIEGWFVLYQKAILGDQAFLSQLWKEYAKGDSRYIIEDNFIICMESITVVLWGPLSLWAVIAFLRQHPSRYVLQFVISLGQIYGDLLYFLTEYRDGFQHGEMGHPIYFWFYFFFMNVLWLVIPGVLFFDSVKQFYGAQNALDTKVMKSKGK
Method: Displacement of ^3H-Emopamil Binding to Guinea Pig Liver Membranes
The method of displacement of ^3H-emopamil binding was a modification of Zech et al (1991) Eur. J. Pharm. 208:119-130.
The Guinea-pig liver membranes were prepared as follows: Male guinea pigs were sacrificed by CO2 asphyxiation with dry ice. The livers were quickly excised and weighed and rinsed in membrane preparation buffer containing 10 mM Hepes, 1 mM Tris base-EDTA, 250 mM sucrose, pH 7.4. The livers were then minced homogenized in 10 times volume with a motor driven Teflon-glass homogenizer with three strokes on ice. The homogenate was centrifuged at 1000×g in a SS34 rotor for 5 minutes at 4° C. The supernatant was filtered through 4 layers of gauze and then centrifuged at 8000×g for 10 minutes 4° C. This resulting supernatant was centrifuged at 40,000×g for 15 minutes at 4° C. The resulting pellet was resuspended in assay buffer and centrifuged again at 40,000×g for 15 minutes at 4° C. This pellet was resuspended in assay buffer (2.5 fold with respect to original wet weight) and homogenized with one stroke with the Teflon-glass homogenizer. Aliquots of 1 mL were stored at −70° C.
The displacement assay was performed as follows: The reaction mixture contained: Assay buffer: 10 mM Tris-HCl, 0.1 mM phenylmethylsulfonyl fluoride (PMSF), 0.2% bovine serum albumin (BSA), pH 7.4 at […]. […]

PC12 cells = experiment: Inhibition of apoptosis in PC12 cells induced by NGF withdrawal (Cell Death Detection ELISA); type: cell-based, rat
Method: Inhibition of Apoptosis in PC12 Cells Induced by NGF Withdrawal
Rat PC12 cells (ATCC Accession Number CRL-1721) were grown in RPMI0-1640 buffer containing 10% heat-inactivated Fetal Bovine Serum (FBS) and 1% L-glutamine (Gibco). Cells were plated in 100 mm Collagen I Falcon plates (Becton Dickinson)at a density of ˜1×10^6-2×10^6 and passed every other day at 1:10 ratio (cells were trypsinized and centrifuged at 1000 rpm for 5 min. Cells were resuspended and plated at the density of 1-2×10^6 cells). Tamoxifen was dissolved in DMSO at a concentration of 10 mM. Subsequent dilutions were done in PC12 cell growth medium containing 1% FBS. […]
Cells were harvested at various time points after the NGF withdrawal procedure to determine the time course of cell death. […] Compounds were used at various concentrations and the extent of apoptosis that occurred in the presence of compounds was expressed as a percentage relative to control cultures that were exposed to vehicle only. […]
Cell death was measured using a Cell Death Detection ELISA (Boehringer-Mannheim Cat# 1774425) according to manufacturers instructions.The ELISA is a photometric enzyme-immunoassay which determines the amount of cytoplasmic histone-associated-DNA-fragments after induced cell death. […]

mouse cortical neurons = experiment: Inhibition of NMDA-induced death of mouse cortical neurons in primary cell culture (LDH); type: cell-based; conditions: result in words; NMDA-induced neuronal death is the patent's necrosis model
Method: Inhibition of NMDA-induced Death of Mouse Cortical Neurons in Primary Cell Culture
A glial feeder layer was prepared from post-natal day 1 or 2 mice. Cortices were dissected in a Ca^2+/Mg^2+-free balanced salt solution, minced, incubated in media stock (MS: GIBCO's MEM supplemented with bicarbonate, glucose, and glutamine) containing trypsin for 30 minutes at 37° C., and centrifuged at 1500 g for 5 minutes to produce a cell pellet. The pellet was re-suspended in plating media (MS supplemented with horse and fetal calf serum) and triturated with a glass pasteur pipette. Cells were plated in 24-well Falcon Primaria tissue culture dishes at a density of 0.5 hemispheres per plate. The dishes had been coated overnight with 10 mg/ml mouse laminin and 25 mg/ml poly-lysine, then washed three times with water. The glial feeder layer was maintained in a humidified atmosphere of 5% CO2/95% air at 37° C. for two weeks. […]
LDH activity was measured as follows: 50 ml of cell-culture media from each well was mixed with 200 ml 0.1 M KH2PO4 containing 30 mg NADH, in a 96-well microtitre plate. After 10 minutes at room temperature, 30 ml of 2.4 mM sodium pyruvate was added, and the absorbance of this solution at 340nm was immediately measured at 15 second intervals for approximately 6 minutes using a Molecular Devices Spectromax 250 plate-reader. […]

Row | SMILES | IC50 (emopamil binding protein) | percentage in the PC12 assay (extent of apoptosis relative to control) (PC12 cells; relative to vehicle-only control cultures, 100% = no inhibition of apoptosis, 0% = total inhibition) | inhibition of necrosis (mouse cortical neurons) | inhibition of apoptosis (PC12 cells; result in words)
1 | CC/C(=C(/c1ccc(OCCN(C)C)cc1)c1ccc(OC(=O)C(C)(C)C)cc1)c1ccccc1 [Example 11, 2,2-dimethyl-, 4-[1-[4-[2-(dimethylamino)ethoxy]phenyl]-2-phenyl-1-butenyl]phenyl Propanoic acid ester, (E)-] | 75 nM | 41% |  | 
2 | CC/C(=C(\c1ccccc1)c1ccc(OCCN(C)C)cc1)c1ccccc1 [tamoxifen citrate] |  |  | inhibit both apoptosis and necrosis | inhibit both apoptosis and necrosis
